The source of these data is the Kinase Knowledgebase extract (Sharma et al. 2016).

The target of assay [1] is MAPK14 (human) (UniProt Q16539). Kind of assay: Inhibition of MAPK14 Kinase Activity by Fluorescence Anisotropy Kinase Binding Assay. For orientation: Polarisation of emitted light reports the rotation of a fluorescent probe.
Assay [2] has the same target. Kind of assay: Inhibition of MAPK14 Kinase Activity.

Some results are limits rather than exact numbers.

As usually defined, the IC50 is the midpoint of a concentration-inhibition curve. A low value points to higher potency.

MAPK14 (human), sequence (Q16539 whole entry, looked up): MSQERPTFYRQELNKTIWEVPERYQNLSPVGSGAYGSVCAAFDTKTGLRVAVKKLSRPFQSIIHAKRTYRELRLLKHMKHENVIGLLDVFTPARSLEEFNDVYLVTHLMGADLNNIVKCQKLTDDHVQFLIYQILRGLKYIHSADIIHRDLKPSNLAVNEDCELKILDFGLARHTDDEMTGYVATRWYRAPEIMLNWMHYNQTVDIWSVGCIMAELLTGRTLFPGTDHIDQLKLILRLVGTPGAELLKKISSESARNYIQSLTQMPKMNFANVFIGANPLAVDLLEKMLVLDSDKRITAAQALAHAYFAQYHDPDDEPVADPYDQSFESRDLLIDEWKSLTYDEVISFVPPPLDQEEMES

In the case of `O=c1ccc2c(-c3ccc(F)cc3F)nc(NC(CO)CO)nc2n1-c1c(F)cc(F)cc1F`, the IC50 on MAPK14 (human) [1] was less than 1 µM; on MAPK14 (human) [2] it was less than 10 µM.

For `O=c1ccc2c(-c3ccc(F)cc3F)nc(NC(CO)CO)nc2n1-c1ccc(F)cc1F`, the IC50 on MAPK14 (human) [1] is less than 1 µM; against MAPK14 (human) [2], less than 10 µM.

In turn, `O=c1ccc2c(-c3ccc(F)cc3Cl)nc(NC(CO)CO)nc2n1-c1ccc(F)cc1F` gave an IC50 on MAPK14 (human) [1] of less than 1 µM.

In turn, `C[C@@H](CO)Nc1nc(-c2ccc(F)cc2F)c2ccc(=O)n(-c3ccc(F)cc3)c2n1` returned an IC50 at MAPK14 (human) [1] of less than 1 µM.

In turn, `O=c1ccc2c(-c3ccc(F)cc3)nc(NC(CO)CO)nc2n1-c1c(F)cc(F)cc1F` yielded a half-inhibitory concentration (IC50) on MAPK14 (human) [1] of less than 1 µM.

With `O=c1ccc2c(-c3ccccc3F)nc(NC(CO)CO)nc2n1-c1c(F)cc(F)cc1F`, the IC50 was less than 1 µM at MAPK14 (human) [1] and less than 10 µM against MAPK14 (human) [2].

For the molecule `O=c1ccc2c(-c3ccc(F)cc3F)nc(NC(CO)CO)nc2n1-c1cccc(F)c1F`, the half-inhibitory concentration (IC50) on MAPK14 (human) [1] is less than 1 µM.
